Results: publication PMC5421877, “SOCS3 inhibits the pathological effects of IL-22 in non-melanoma skin tumor-derived keratinocytes” (Oncotarget, 2017)

Assays:
[1] = test system: healthy keratinocytes; experiment: CyQUANT proliferation assay, healthy keratinocytes; type: cell-based, human; details: healthy KC; PD98059 20 μM or S3I-201 10 μM, 48 h
Protocol: (§1) Figure 6 IL-22-induced proliferation and migration of healthy and transformed keratinocytes is counteracted by KIR-ESS peptide (A) Healthy KC, CAL27 and CAL33 cultures were plated in 96-well plates in quadruplicate for each condition. After 1 day, cells were pre-treated or not with Ctrl1 or KIR-ESS peptides (40 μM), or S31-201 ([…]) and PD98059 ([…]) chemical inhibitors, and, then, stimulated or not with 50 ng/ml of IL-22. Data relative to 48-h treatment are shown and expressed as the values of fluorescence intensity obtained from untreated and IL-22-treated ± SD. Three independent experiments were performed. *p < 0.01. […] (C) Cell-free area was measured and indicated as residual wound. […]
(§2) SOCS1- and SOCS3 stably transfected keratinocytes or cultured keratinocytes previously transfected with SOCS3 or control siRNA were seeded in 96-well plates (1.5–2.0 × 10^4 cells/well), and, the day after, starved in medium without serum. At 60% confluence, cells were treated with 75 ng/ml of IL-22 for 3 days, stained with 0.5% crystal violet (Bio-Rad, Hercules, CA, USA), and then analyzed in an ELISA reader (model 3550 UV ELISA reader; Bio-Rad). […] After 1-h pre-incubation, cells were treated with IL-22 or left unstimulated, cultured for other 24, 48 and 72 h, and the number of viable cells determined by CyQUANT Cell Proliferation Assay, accordingly to manufacture's protocol. […]

[2] = test system: SCC-cell lines (CAL27 and CAL33); experiment: CyQUANT proliferation assay, SCC-cell lines; type: cell-based; details: PD98059 20 μM or S3I-201 10 μM, 48 h
Protocol: as §1, §2

[3] = test system: healthy keratinocytes; experiment: Scratch assay (migration), healthy keratinocytes; type: cell-based, human; details: without IL-22, 40 μM peptide or PD98059 20 μM, 24 h
Protocol: as §1, with “0.01. (B) Scratch assays were carried out on healthy or SCC-lines, pre-incubated with mitomycin C (5 mg/ml), pre-treated with Ctrl1 or KIR-ESS peptides (40 μM), or S31-201 ([…]) or PD98059 ([…]) chemical inhibitors, and, then, stimulated or not with IL-22 for 24 h.” for “0.01.”
Cultured keratinocytes and SCC cell lines were grown at 100% confluence on type IV collagen (20 μg/ml), and then incubated with mitomycin C (5 mg/ml) (Sigma-Aldrich) for 1 h. […] The residual gap between migrating keratinocytes was measured with a computer-assisted image analysis system (Axiovision; Zeiss, Oberkochen, Germany), and expressed as percentage of the initial scratched area.

[4] = test system: CAL27 cells; experiment: Scratch assay (migration), CAL27; type: cell-based; details: CAL27; 40 μM peptide, PD98059 20 μM or S3I-201 10 μM; IL-22 50 ng/ml, 24 h
Protocol: (§3) Figure 6 IL-22-induced proliferation and migration of healthy and transformed keratinocytes is counteracted by KIR-ESS peptide (A) Healthy KC, CAL27 and CAL33 cultures were plated in 96-well plates in quadruplicate for each condition. After 1 day, cells were pre-treated or not with Ctrl1 or KIR-ESS peptides (40 μM), or S31-201 ([…]) and PD98059 ([…]) chemical inhibitors, and, then, stimulated or not with 50 ng/ml of IL-22. Data relative to 48-h treatment are shown and expressed as the values of fluorescence intensity obtained from untreated and IL-22-treated ± SD. Three independent experiments were performed. *p < 0.01. (B) Scratch assays were carried out on healthy or SCC-lines, pre-incubated with mitomycin C (5 mg/ml), pre-treated with Ctrl1 or KIR-ESS peptides (40 μM), or S31-201 ([…]) or PD98059 ([…]) chemical inhibitors, and, then, stimulated or not with IL-22 for 24 h. Microscopic images were taken immediately after and 24 h after wound induction on confluent cell layers. Initial scratches (0 h) are dashed blank. (C) Cell-free area was measured and indicated as residual wound. Data are reported as healed wound (gray area of bars) vs residual wound (white area of bars) which a value of 100% was given. *p < 0.01.
(§4) Cultured keratinocytes and SCC cell lines were grown at 100% confluence on type IV collagen (20 μg/ml), and then incubated with mitomycin C (5 mg/ml) (Sigma-Aldrich) for 1 h. Cell monolayers were scratched with the tip of a p-200 pipette to create uniform cell-free zones, and, then, pre-treated with appropriate concentrations of SOCS3 mimetic or control peptides, or with 10 μM STAT3 (S3I-201, Santa Cruz) and 20 μM Erk1/2 (PD98059, Calbiochem) inhibitors for 1 h, before treating by 50 ng/ml of IL-22. Microscopy pictures were taken with a digital camera at different time points following IL-22 treatment. The residual gap between migrating keratinocytes was measured with a computer-assisted image analysis system (Axiovision; Zeiss, Oberkochen, Germany), and expressed as percentage of the initial scratched area.

[5] = test system: CAL33 cells; experiment: Scratch assay (migration), CAL33; type: cell-based; details: 24 h
Protocol: as §3, §4

COc1cccc(-c2cc(=O)c3ccccc3o2)c1N [PD98059]
proliferation (effect relative to KIR-ESS) [1]: KIR-ESS effect was similar to that observed in all healthy and transformed keratinocyte cultures
proliferation (effect relative to KIR-ESS) [2]: KIR-ESS effect was similar to that observed in all healthy and transformed keratinocyte cultures
wound closure / migration, resting cells [3]: efficacious in inhibiting migration of CAL27 cells and healthy or CAL33 keratinocytes, respectively
wound closure, IL-22-treated [4]: effect similar to those obtained with the chemical Erk1/2 and STAT3 inhibitors
wound closure / migration, resting cells ([5]; CAL33, without IL-22, 40 μM peptide or PD98059 20 μM): efficacious in inhibiting migration of CAL27 cells and healthy or CAL33 keratinocytes, respectively
wound closure, IL-22-treated ([5]; CAL33, 40 μM peptide, PD98059 20 μM or S3I-201 10 μM, IL-22 50 ng/ml): effect similar to those obtained with the chemical Erk1/2 and STAT3 inhibitors
